Measurements as given in patent publication US20150030566A1, “ANTIMICROBIAL PEPTIDE COMPOSITIONS FOR PLANTS” (Stellenbosch University, priority 2012, published 2015).
Residues, ends and D or L forms follow the SMILES beside them.

Assays:
Format in all cases: cell-based
Phomopsis = test: Hydration tank assay, spore viability; conditions: 10 μg/ml peptide
Procedure: (§1) This loss of activity in solution was, however, overcome by increasing the Trx mix concentration to 20 mg/L. It must also be emphasized that the Trc mix activity was tested at 10 times (10^7 spores/L) the spore concentration used for the testing of commercial fungicides and at 100 times the spore concentration usually observed in contaminated grapevine material (personal communication with the Department of Plant pathology, Stellenbosch University).
(§2) The activities of the GS and Trc mix were also assessed in the presence of and absence of grapevine stem material in a simulated hydration tank environment. Each 5.0 mL assay contained fungal spores at 10 000 spores/mL, peptide at 10 and 20 μg/mL and grapevine stem material. Grapevine stem material was washed with 70% ethanol and rinsed with sterile water before placement in inoculated hydration tanks, whereafter the Trc mix was added. Controls contained either the peptide or grapevine stem material. The assays were incubated at room temperature for 16 hours, whereafter three 100 μl aliquots of each assay were plated on PDA agar and allowed to grow for three days at 25° C. Some plates were stained with Coomassie brilliant blue stain (0.025% Coomassie, 12.5% isopropanol and 10% acetic acid) for better visualization of the fungal colonies. The number of colonies that developed after three days was recorded and expressed as percentage viable spores after comparing to the control samples which contained no peptide.

Cylindrocarpon = test: Hydration tank assay, spore viability
Procedure: as §1, §2

Phaeoacremonium = test: Hydration tank assay, spore viability
Procedure: as §1, §2

Botrytis cinerea = test: Microdilution broth assay; parameters: MIC + SEM / MIC against B. cinerea in PDB (n): unit not given beside the values
Procedure: (§3) Microdilution broth and agar assays were used to assess the antifungal activity of the cyclic decapeptides in liquid media and on solid (gel) media, respectively.
(§4) The antibacterial activity of the tyrocidines and gramicidin S against all the bacteria tested was determined by the methods described by Du Toit E A and Rautenbach M (2000) J. Microbiol. Methods, 42, 159-165. The antifungal activity of the tyrocidines against all the […] tested was determined by the methods described by Troskie A M, Vlok N M and Rautenbach M (2012) J. Microbiol. Methods, 91, 551-558.

[1] = test system: Listeria monocytogenes B73-MR1; test: Microdilution broth assay; parameters: unit not given beside the values
Procedure: as §3, §4

[2] = test system: Trichoderma atroviride (wood isolate); test: Microdilution broth assay; parameters: unit not given beside the values
Procedure: as §3, §4

[3] = test system: Talaromyces mineoluteus (peach isolate); test: Microdilution broth assay; parameters: unit not given beside the values
Procedure: as §3, §4

Bacillus subtilis 168 = test: Microdilution broth assay; parameters: unit not given beside the values
Procedure: as §3, §4

[4] = test system: Micrococcus luteus NCTG 8340; test: Microdilution broth assay; parameters: unit not given beside the values
Procedure: as §3, §4

[5] = test system: Bacillus spizizenii ATCC 6633; test: Microdilution broth assay; parameters: unit not given beside the values
Procedure: as §3, §4

Bacillus subtilis OKB105 = test: Microdilution broth assay; parameters: unit not given beside the values
Procedure: as §3, §4

Escherichia coli HB101 = test: Microdilution broth assay; parameters: unit not given beside the values
Procedure: as §3, §4

[6] = test system: Talaromyces ramulosus (peach isolate); test: Microdilution broth assay; parameters: unit not given beside the values
Procedure: as §3, §4

Bacillus subtilis OKB120 = test: Microdilution broth assay; parameters: unit not given beside the values
Procedure: as §3, §4

[7] = test system: Listeria monocytogenes B73; test: Microdilution broth assay; parameters: unit not given beside the values
Procedure: as §3, §4

[8] = test system: Bacillus subtilis ATCC21332; test: Microdilution broth assay; parameters: unit not given beside the values
Procedure: as §3, §4

[9] = test system: Cylindrocarpon liriodendri; test: Microdilution broth assay; parameters: unit not given beside the values
Procedure: as §3, §4

Q: Which results are given for `CC(C)C[C@@H]1NC(=O)[C@H](CCCN)NC(=O)[C@H](C(C)C)NC(=O)C2CCCN2C(=O)[C@@H](Cc2ccccc2)NC(=O)[C@H](CC(C)C)NC(=O)[C@H](CCCN)NC(=O)[C@H](C(C)C)NC(=O)C2CCCN2C(=O)[C@@H](Cc2ccccc2)NC1=O` (stereo partly shown) [GS, Cyclo-(VOLfPVOLfP)] (HELM PEPTIDE1{L.[dF].[O=C(C1CCCN1[*:1])[*:2]].V.[Orn].L.[dF].[O=C(C1CCCN1[*:1])[*:2]].V.[Orn]}$PEPTIDE1,PEPTIDE1,1:R1-10:R2$$$V2.0)?
A: percentage viable spores compared to the growth/survival controls (Phomopsis; +gvs): 0%; percentage viable spores compared to the growth/survival controls (Phomopsis; −gvs): 0%; percentage viable spores compared to the growth/survival controls (Cylindrocarpon; +gvs, 10 μg/ml peptide): 0%; percentage viable spores compared to the growth/survival controls (Cylindrocarpon; +gvs, 20 μg/ml peptide): 0%; percentage viable spores compared to the growth/survival controls (Cylindrocarpon; −gvs, 10 μg/ml peptide): 0%; percentage viable spores compared to the growth/survival controls (Cylindrocarpon; −gvs, 20 μg/ml peptide): 0%; percentage viable spores compared to the growth/survival controls (Phaeoacremonium; +gvs, 10 μg/ml peptide): 0%; percentage viable spores compared to the growth/survival controls (Phaeoacremonium; +gvs, 20 μg/ml peptide): 0%; percentage viable spores compared to the growth/survival controls (Phaeoacremonium; −gvs, 10 μg/ml peptide): 0%; percentage viable spores compared to the growth/survival controls (Phaeoacremonium; −gvs, 20 μg/ml peptide): 0%; MIC + SEM (Botrytis cinerea; Broth, Botrytis cinerea): 2.8 ± 0.3; MIC against B. cinerea in PDB (n) (Botrytis cinerea; potato dextrose broth (low salt PDB)): 1.8 ± 0.3; MIC + SEM [1]: 5.6 ± 0.1; MIC + SEM [2]: 4.8 ± 0.3; MIC + SEM [3]: 4.2 ± 0.2; MIC + SEM (Bacillus subtilis 168): 8-14; MIC + SEM [4]: 28 ± 0.4; MIC + SEM [5]: 2.6 ± 0.2; MIC + SEM (Bacillus subtilis OKB105): 8-14; MIC + SEM (Escherichia coli HB101): 44; MIC + SEM [6]: 3.0 ± 0.1; MIC + SEM (Bacillus subtilis OKB120): 8-14; MIC + SEM [7]: 9.9 ± 0.2; MIC + SEM [8]: 8-14; MIC + SEM [9]: 2.3 ± 0.1
